± gives the expanded uncertainty stated by the source.
Assay: wn = mass fraction of the nth substance listed
Settings: Liquid, Pycnometric method, w2 = 0.4981

FC(F)C(F)(F)F [pentafluoroethane] + FCF
Settings | mass density [kg/m3]
357.15 K, 9042 kPa | 773.5 ± 1.3
357.15 K, 9048 kPa | 773.4 ± 1.3
357.15 K, 16243 kPa | 919 ± 1.7
357.15 K, 16254 kPa | 918.9 ± 1.5
357.15 K, 16277 kPa | 919.1 ± 1.7
358.15 K, 9284 kPa | 773.4 ± 1.3
358.15 K, 9290 kPa | 773.3 ± 1.3
358.15 K, 16617 kPa | 918.9 ± 1.7
358.15 K, 16628 kPa | 918.8 ± 1.5
358.15 K, 16652 kPa | 919.1 ± 1.7
359.15 K, 9527 kPa | 773.3 ± 1.3
359.15 K, 9532 kPa | 773.3 ± 1.3
359.15 K, 16990 kPa | 918.8 ± 1.6
359.15 K, 17003 kPa | 918.7 ± 1.5
359.15 K, 17027 kPa | 919 ± 1.6
360.15 K, 9770 kPa | 773.3 ± 1.3
360.15 K, 9775 kPa | 773.2 ± 1.3
360.15 K, 17365 kPa | 918.7 ± 1.7
360.15 K, 17377 kPa | 918.7 ± 1.5
360.15 K, 17401 kPa | 918.9 ± 1.7
361.15 K, 10013 kPa | 773.2 ± 1.3
361.15 K, 10019 kPa | 773.1 ± 1.3
361.15 K, 17739 kPa | 918.6 ± 2.5
361.15 K, 17752 kPa | 918.6 ± 1.5
361.15 K, 17776 kPa | 918.8 ± 2.5
362.15 K, 10256 kPa | 773.2 ± 1.3
362.15 K, 10262 kPa | 773.1 ± 1.3
362.15 K, 18113 kPa | 918.5 ± 1.6
362.15 K, 18127 kPa | 918.5 ± 1.5
362.15 K, 18151 kPa | 918.7 ± 1.6
363.15 K, 10501 kPa | 773.1 ± 1.3
363.15 K, 10506 kPa | 773 ± 1.3
363.15 K, 18487 kPa | 918.4 ± 2
363.15 K, 18501 kPa | 918.4 ± 2
363.15 K, 18526 kPa | 918.6 ± 2
364.15 K, 10745 kPa | 773.1 ± 1.3
364.15 K, 10751 kPa | 773 ± 1.3
364.15 K, 18862 kPa | 918.4 ± 1.6
364.15 K, 18876 kPa | 918.3 ± 1.5
364.15 K, 18899 kPa | 918.5 ± 1.6
365.15 K, 10990 kPa | 773 ± 1.3
365.15 K, 10996 kPa | 772.9 ± 1.3
365.15 K, 19236 kPa | 918.3 ± 1.6
365.15 K, 19250 kPa | 918.3 ± 1.5
365.15 K, 19274 kPa | 918.4 ± 1.8
366.15 K, 11235 kPa | 772.9 ± 1.3
366.15 K, 11241 kPa | 772.9 ± 1.3
366.15 K, 19610 kPa | 918.2 ± 1.9
366.15 K, 19625 kPa | 918.2 ± 1.5
366.15 K, 19649 kPa | 918.4 ± 1.9
367.15 K, 11480 kPa | 772.9 ± 1.3
367.15 K, 11486 kPa | 772.8 ± 1.3
367.15 K, 19985 kPa | 918.1 ± 1.5
367.15 K, 20000 kPa | 918.1 ± 1.5
367.15 K, 20025 kPa | 918.3 ± 1.5
368.15 K, 11726 kPa | 772.8 ± 1.3
368.15 K, 11732 kPa | 772.7 ± 1.3
368.15 K, 20360 kPa | 918 ± 1.5
368.15 K, 20375 kPa | 918 ± 1.5
368.15 K, 20400 kPa | 918.2 ± 1.5
369.15 K, 11972 kPa | 772.8 ± 1.3
369.15 K, 11979 kPa | 772.7 ± 1.3
369.15 K, 20734 kPa | 917.9 ± 1.5
369.15 K, 20750 kPa | 917.9 ± 1.5
369.15 K, 20776 kPa | 918.1 ± 1.5
370.15 K, 12219 kPa | 772.7 ± 1.3
370.15 K, 12225 kPa | 772.6 ± 1.3
370.15 K, 21109 kPa | 917.8 ± 1.5
370.15 K, 21125 kPa | 917.8 ± 1.5
370.15 K, 21150 kPa | 918 ± 1.5
371.15 K, 12465 kPa | 772.6 ± 1.3
371.15 K, 12472 kPa | 772.6 ± 1.3
371.15 K, 21484 kPa | 917.7 ± 1.5
371.15 K, 21500 kPa | 917.7 ± 1.5
371.15 K, 21525 kPa | 917.9 ± 1.5
372.15 K, 12712 kPa | 772.6 ± 1.3
372.15 K, 12719 kPa | 772.5 ± 1.3
372.15 K, 21859 kPa | 917.6 ± 1.5
372.15 K, 21875 kPa | 917.6 ± 1.5
372.15 K, 21901 kPa | 917.8 ± 1.5
373.15 K, 12959 kPa | 772.5 ± 1.3
373.15 K, 12966 kPa | 772.5 ± 1.3
373.15 K, 22234 kPa | 917.5 ± 1.5
373.15 K, 22250 kPa | 917.6 ± 1.5
373.15 K, 22277 kPa | 917.8 ± 1.5
374.15 K, 13207 kPa | 772.5 ± 1.3
374.15 K, 13213 kPa | 772.4 ± 1.3
374.15 K, 22609 kPa | 917.5 ± 1.5
374.15 K, 22625 kPa | 917.5 ± 1.5
374.15 K, 22654 kPa | 917.7 ± 1.5
375.15 K, 13454 kPa | 772.4 ± 1.3
375.15 K, 13461 kPa | 772.3 ± 1.3
375.15 K, 22984 kPa | 917.4 ± 1.5
375.15 K, 23000 kPa | 917.4 ± 1.5
375.15 K, 23029 kPa | 917.6 ± 1.5
376.15 K, 13702 kPa | 772.3 ± 1.3
376.15 K, 13709 kPa | 772.3 ± 1.3
376.15 K, 23359 kPa | 917.3 ± 1.5
376.15 K, 23375 kPa | 917.3 ± 1.5
376.15 K, 23406 kPa | 917.5 ± 1.5
377.15 K, 13950 kPa | 772.3 ± 1.3
377.15 K, 13957 kPa | 772.2 ± 1.3
377.15 K, 23734 kPa | 917.2 ± 1.5
377.15 K, 23750 kPa | 917.2 ± 1.5
377.15 K, 23780 kPa | 917.4 ± 1.5
378.15 K, 14198 kPa | 772.2 ± 1.3
378.15 K, 14205 kPa | 772.2 ± 1.3
378.15 K, 24109 kPa | 917.1 ± 1.5
378.15 K, 24125 kPa | 917.1 ± 1.5
378.15 K, 24155 kPa | 917.3 ± 1.5
379.15 K, 14447 kPa | 772.2 ± 1.3
379.15 K, 14454 kPa | 772.1 ± 1.3
379.15 K, 24484 kPa | 917 ± 1.5
379.15 K, 24500 kPa | 917 ± 1.5
379.15 K, 24531 kPa | 917.2 ± 1.5
380.15 K, 14696 kPa | 772.1 ± 1.3
380.15 K, 14702 kPa | 772 ± 1.3
380.15 K, 24858 kPa | 916.9 ± 1.5
380.15 K, 24875 kPa | 916.9 ± 1.5
380.15 K, 24906 kPa | 917.1 ± 1.5
381.15 K, 14944 kPa | 772.1 ± 1.3
381.15 K, 14951 kPa | 772 ± 1.3
381.15 K, 25233 kPa | 916.8 ± 1.5
381.15 K, 25250 kPa | 916.8 ± 1.5
381.15 K, 25282 kPa | 917 ± 1.5
382.15 K, 15194 kPa | 772 ± 1.3
382.15 K, 15200 kPa | 771.9 ± 1.3
382.15 K, 25608 kPa | 916.7 ± 1.5
382.15 K, 25625 kPa | 916.7 ± 1.5
382.15 K, 25657 kPa | 916.9 ± 1.5
383.15 K, 15443 kPa | 772 ± 1.3
383.15 K, 15449 kPa | 771.8 ± 1.3
383.15 K, 25983 kPa | 916.6 ± 1.5
383.15 K, 26000 kPa | 916.6 ± 1.5
383.15 K, 26033 kPa | 916.8 ± 1.5
384.15 K, 15692 kPa | 771.9 ± 1.3
384.15 K, 15699 kPa | 771.8 ± 1.3
384.15 K, 26358 kPa | 916.5 ± 1.5
384.15 K, 26375 kPa | 916.5 ± 1.5
384.15 K, 26408 kPa | 916.7 ± 1.5
385.15 K, 15942 kPa | 771.8 ± 1.3
385.15 K, 15948 kPa | 771.7 ± 1.3
385.15 K, 26733 kPa | 916.4 ± 1.5
385.15 K, 26750 kPa | 916.5 ± 1.5
385.15 K, 26784 kPa | 916.6 ± 1.5
386.15 K, 16192 kPa | 771.8 ± 1.3
386.15 K, 16198 kPa | 771.7 ± 1.3
386.15 K, 27107 kPa | 916.3 ± 1.5
386.15 K, 27125 kPa | 916.4 ± 1.5
386.15 K, 27159 kPa | 916.6 ± 1.5
387.15 K, 16442 kPa | 771.7 ± 1.3
387.15 K, 16448 kPa | 771.6 ± 1.3
387.15 K, 27482 kPa | 916.2 ± 1.5
387.15 K, 27500 kPa | 916.3 ± 1.5
387.15 K, 27533 kPa | 916.5 ± 1.5
388.15 K, 16692 kPa | 771.6 ± 1.3
388.15 K, 16698 kPa | 771.5 ± 1.3
388.15 K, 27856 kPa | 916.1 ± 1.5
388.15 K, 27874 kPa | 916.2 ± 1.5
388.15 K, 27907 kPa | 916.4 ± 1.5
389.15 K, 16942 kPa | 771.6 ± 1.3
389.15 K, 16948 kPa | 771.5 ± 1.3
389.15 K, 28231 kPa | 916 ± 1.5
389.15 K, 28249 kPa | 916.1 ± 1.5
389.15 K, 28282 kPa | 916.3 ± 1.5
390.15 K, 17192 kPa | 771.5 ± 1.3
390.15 K, 17198 kPa | 771.4 ± 1.3
390.15 K, 28605 kPa | 915.9 ± 1.5
390.15 K, 28624 kPa | 916 ± 1.5
390.15 K, 28657 kPa | 916.2 ± 1.5
391.15 K, 17442 kPa | 771.4 ± 1.3
391.15 K, 17448 kPa | 771.3 ± 1.3
391.15 K, 28979 kPa | 915.8 ± 1.5
391.15 K, 28998 kPa | 915.9 ± 1.5
391.15 K, 29032 kPa | 916.1 ± 1.5
392.15 K, 17692 kPa | 771.4 ± 1.3
392.15 K, 17698 kPa | 771.3 ± 1.3
392.15 K, 29354 kPa | 915.7 ± 1.5
392.15 K, 29373 kPa | 915.8 ± 1.5
392.15 K, 29407 kPa | 916 ± 1.5
393.15 K, 17943 kPa | 771.3 ± 1.3
393.15 K, 17949 kPa | 771.2 ± 1.3
393.15 K, 29728 kPa | 915.6 ± 1.5
393.15 K, 29782 kPa | 915.9 ± 1.5
394.15 K, 18193 kPa | 771.3 ± 1.3
394.15 K, 18199 kPa | 771.1 ± 1.3
395.15 K, 18444 kPa | 771.2 ± 1.3
395.15 K, 18450 kPa | 771.1 ± 1.3
396.15 K, 18701 kPa | 771 ± 1.3
397.15 K, 18951 kPa | 770.9 ± 1.3

Source: the NIST ThermoML archive (doi:10.1007/s10765-010-0766-0)
